Laboratory results taken from the OligoGym collection.
Values joined by “and” are separate entries in the source; they are usually repeats but may differ in a detail not shown here. Equal values may be shown once. After the bases stand the sugars from the 5' end (letter, count) and the backbone: PS all phosphorothioate, else s phosphorothioate and o phosphodiester by linkage. Methylation of C is not given here. e = 2'-O-(2-methoxyethyl) (MOE); k = constrained ethyl (cEt); d = 2'-deoxy (DNA)

How the values were obtained:
MALAT1 = conditions: ASO, A431, 0.005 µM
IRF4 = conditions: ASO

| Sequence | target mRNA inhibition (MALAT1) [%] | other results |
| --- | --- | --- |
| ACAGGAAGGCTCCATG (sugars k3 d10 k3, PS) | 25 | – |
| ACATTAAGTTGGTAAT (sugars k3 d10 k3, PS) | 4 | – |
| ACATTGCCTACCACTC (sugars k3 d10 k3, PS) | 16 | – |
| ACCAAATCGCACTGGC (sugars k3 d10 k3, PS) | 3 | – |
| ACCACTCGCTTTCCCT (sugars k3 d10 k3, PS) | 35 | – |
| ACCCAGTGGCTCATAT (sugars k3 d10 k3, PS) | 16 | – |
| ACCCCCGGAACTTTTA (sugars k3 d10 k3, PS) | 9 | – |
| ACCGGAGCAGGAAGAA (sugars k3 d10 k3, PS) | 4 | – |
| ACCTAAACCCACCCCA (sugars k3 d10 k3, PS) | -1 | – |
| ACCTTAACATCTTGTT (sugars k3 d10 k3, PS) | 15 | – |
| ACCTTCATCACCAAAT (sugars k3 d10 k3, PS) | 22 | – |
| ACGAAAGTCCTTCACA (sugars k3 d10 k3, PS) | 11 | – |
| ACGCAACTGAGCCCCA (sugars k3 d10 k3, PS) | -44 | – |
| ACGCCTCAATCCCACA (sugars k3 d10 k3, PS) | 27 | – |
| ACGGAAATTTTTCTAC (sugars k3 d10 k3, PS) | 4 | – |
| ACGGCCCGCACGGAAA (sugars k3 d10 k3, PS) | 16 | – |
| ACGGTTGAGAAGTGGC (sugars k3 d10 k3, PS) | 22 | – |
| ACTAAACAATTACCTA (sugars k3 d10 k3, PS) | 9 | – |
| ACTAAGCGAATGGCTT (sugars k3 d10 k3, PS) | -9 | – |
| ACTACTCCAAGCATTG (sugars k3 d10 k3, PS) | 36 | – |
| ACTAGCACCTGCAGAG (sugars k3 d10 k3, PS) | 23 | – |
| ACTCAGAAGATGTTAT (sugars k3 d10 k3, PS) | 30 | – |
| ACTCGCTTTCCCTGTG (sugars k3 d10 k3, PS) | 35 | – |
| ACTCTAATCACTGTCA (sugars k3 d10 k3, PS) | 35 | – |
| ACTCTGATCATAATCT (sugars k3 d10 k3, PS) | 35 | – |
| ACTGAACTGTTTAAAC (sugars k3 d10 k3, PS) | 6 | – |
| ACTGGATAAGTATTAT (sugars k3 d10 k3, PS) | 46 | – |

| Sequence | target mRNA inhibition (MALAT1) [%] | other results |
| --- | --- | --- |
| ACTTATCTGTTAACAG (sugars k3 d10 k3, PS) | 25 | – |
| ACTTGGAAGTTGATAT (sugars k3 d10 k3, PS) | 4 | – |
| ACTTTAAATTGGTAGC (sugars k3 d10 k3, PS) | 28 | – |
| AGAACCACACACTACC (sugars k3 d10 k3, PS) | 23 | – |
| AGACCAACCCCCAGTT (sugars k3 d10 k3, PS) | 0 | – |
| TTGGACAGAAGGGCAA (sugars k3 d10 k3, PS) | – | target mRNA inhibition (IRF4; SK-MEL-28, 4 µM): 29% |
| TTGGCCTGCCGGCCTG (sugars k3 d10 k3, PS) | – | target mRNA inhibition (IRF4; SK-MEL-28, 4 µM): 4% |
| TTGGTACGGGATTTCC (sugars k3 d10 k3, PS) | – | target mRNA inhibition (IRF4; MM.1R, 1 µM): 34% |
| TTGGTTGGCTGGTCTT (sugars k3 d10 k3, PS) | – | target mRNA inhibition (IRF4; MM.1R, 0.0625 µM): 40%; target mRNA inhibition (IRF4; MM.1R, 0.25 µM): 58%; target mRNA inhibition (IRF4; MM.1R, 1 µM): 76% and 72%; target mRNA inhibition (IRF4; MM.1R, 4 µM): 89% |
| TTGGTTGGCTGGTCTT (sugars kkddddddddddkeke, PS) | – | target mRNA inhibition (IRF4; MM.1R, 1 µM): 27% |
| TTGGTTGGCTGGTCTT (sugars kkdddddddddekeke, PS) | – | target mRNA inhibition (IRF4; MM.1R, 1 µM): 34% |
| TTTAAAATATCGCCCA (sugars k3 d10 k3, PS) | – | target mRNA inhibition (IRF4; MM.1R, 1 µM): -1% |
| TTTACTAACTGGCTTC (sugars k3 d10 k3, PS) | – | target mRNA inhibition (IRF4; SK-MEL-28, 4 µM): 45% |
| TTTACTGTTACCGATG (sugars k3 d10 k3, PS) | – | target mRNA inhibition (IRF4; SK-MEL-28, 4 µM): 48% |
| TTTATCATCCGAAAAG (sugars k3 d10 k3, PS) | – | target mRNA inhibition (IRF4; MM.1R, 1 µM): 7% |
| TTTATGAGCTTCCACA (sugars k3 d10 k3, PS) | – | target mRNA inhibition (IRF4; SK-MEL-28, 4 µM): 54% |
| TTTATGTTAGCCAATT (sugars k2 d9 e3 k2, PS) | – | target mRNA inhibition (IRF4; MM.1R, 1 µM): 3% and 21% |
| TTTATGTTAGCCAATT (sugars k3 d10 k3, PS) | – | target mRNA inhibition (IRF4; MM.1R, 1 µM): 25% and 13% |
| TTTATGTTAGCCAATT (sugars kdddddddddkekeke, PS) | – | target mRNA inhibition (IRF4; MM.1R, 1 µM): 5% and 14% |
| TTTATGTTAGCCAATT (sugars kkddddddddddkeke, PS) | – | target mRNA inhibition (IRF4; MM.1R, 1 µM): 11% and -5% |
| TTTCAAATCGACTGCC (sugars k3 d10 k3, PS) | – | target mRNA inhibition (IRF4; SK-MEL-28, 4 µM): 31% |
| TTTCAACTTGTGACCC (sugars k3 d10 k3, PS) | – | target mRNA inhibition (IRF4; MM.1R, 1 µM): 1% |
| TTTCAGGAGCTAGTTT (sugars k3 d10 k3, PS) | – | target mRNA inhibition (IRF4; MM.1R, 1 µM): 8% |
| TTTCATAGCTAGTTCA (sugars k3 d10 k3, PS) | – | target mRNA inhibition (IRF4; SK-MEL-28, 4 µM): 56% |
| TTTTAAGGCCCTGTCA (sugars k3 d10 k3, PS) | – | target mRNA inhibition (IRF4; SK-MEL-28, 4 µM): 18% |
| TTTTAGTTCATACCCA (sugars k3 d10 k3, PS) | – | target mRNA inhibition (IRF4; SK-MEL-28, 4 µM): 52% |
| TTTTTCCATATGACCC (sugars k3 d10 k3, PS) | – | target mRNA inhibition (IRF4; SK-MEL-28, 4 µM): 75% |
